Measured values reported in the supplement of paper PMC4862054.

Experiments:
HCC1143 [1] = test: normalised viability (% of control), CellTiter-Blue; higher = more viable cells (about 100 = DMSO control); conditions: incubation time: 72 h
Outline: (§1)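 Breast cancer cell lines in 20 µl suspension were seeded onto 384-well plates pre-loaded with compound dissolved in 5 µl medium, then incubated 72 h. CellTiter-Blue reagent (2.5 µl) was added for 2 h at 37 °C and fluorescence read at 560/590 nm. Each plate was normalised to vehicle (100) and a positive kill control (0), with Z'-factor quality control. The value is normalised viability at one listed concentration of the series.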

BT-549 [2] = test: as above; conditions: incubation time: 72 h
Outline: as §1

SK-BR-3 [3] = test: as above; conditions: incubation time: 72 h
Outline: as §1

BT-474 [4] = test: as above; conditions: incubation time: 72 h
Outline: as §1

CAL-120 [5] = test: as above; conditions: incubation time: 72 h
Outline: as §1

MDA-MB-468 [6] = test: as above; conditions: incubation time: 72 h
Outline: as §1

MDA-MB-436 [7] = test: as above; conditions: incubation time: 72 h
Outline: as §1

HDQ-P1 [8] = test: as above; conditions: incubation time: 72 h
Outline: as §1

HCC1937 [9] = test: drug sensitivity score (DSS), CellTiter-Glo (DSS (AUC-based score)); higher = stronger drug effect (viability inhibition or cytotoxicity); extreme values may be limits of the assay; conditions: incubation time: 72 h
Outline: (§2)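 In 384-well plates, compound was laid out at 5 concentrations in 10-fold steps over a 10,000-fold range specific to each compound, and breast cancer cell lines were seeded on top in 20 µl suspension for a 72 h incubation. CellTox Green fluorescence and then CellTiter-Glo luminescence were read, and each plate was normalised to 0.1 % DMSO and a positive kill control. The drug sensitivity score was calculated from the area under the fitted dose-response curve.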

HCC1599 [10] = test: as above; conditions: incubation time: 72 h
Outline: as §2

MFM-223 [11] = test: as above; conditions: incubation time: 72 h
Outline: as §2

HCC1937 [12] = test: normalised viability (% of control), CellTiter-Blue; higher = more viable cells (about 100 = DMSO control); conditions: 100 nM; incubation time: 72 h
Outline: as §1

MDA-MB-453 = test: as above; conditions: 10 nM; incubation time: 72 h
Outline: as §1

HCC1143 [13] = test: as above; conditions: 100 nM; incubation time: 72 h
Outline: as §1

BT-549 [14] = test: as above; conditions: 100 nM; incubation time: 72 h
Outline: as §1

Hs578T = test: as above; conditions: 100 nM; incubation time: 72 h
Outline: as §1

SK-BR-3 [15] = test: as above; conditions: 100 nM; incubation time: 72 h
Outline: as §1

BT-474 [16] = test: as above; conditions: 100 nM; incubation time: 72 h
Outline: as §1

CAL-120 [17] = test: as above; conditions: 100 nM; incubation time: 72 h
Outline: as §1

MDA-MB-231 = test: as above; conditions: 100 nM; incubation time: 72 h
Outline: as §1

CAL-85-1 = test: as above; conditions: 10 nM; incubation time: 72 h
Outline: as §1

MDA-MB-468 [18] = test: as above; conditions: 100 nM; incubation time: 72 h
Outline: as §1

HCC1599 [19] = test: as above; conditions: 100 nM; incubation time: 72 h
Outline: as §1

DU-4475 = test: as above; conditions: 10 nM; incubation time: 72 h
Outline: as §1

MFM-223 [20] = test: as above; conditions: 100 nM; incubation time: 72 h
Outline: as §1

MDA-MB-436 [21] = test: as above; conditions: 100 nM; incubation time: 72 h
Outline: as §1

CAL-51 = test: as above; conditions: 10 nM; incubation time: 72 h
Outline: as §1

CAL-148 = test: as above; conditions: 10 nM; incubation time: 72 h
Outline: as §1

HDQ-P1 [22] = test: as above; conditions: 10 nM; incubation time: 72 h
Outline: as §1

For `CC(C)(C)c1cnc(CSc2cnc(NC(=O)C3CCNCC3)s2)o1` [SNS-032], the normalised viability (HCC1143 [1]; 10 nM) was 79.7%, the normalised viability (HCC1143 [1]; 1000 nM) was 17.5% and the normalised viability (HCC1143 [1]; 10000 nM) was 16.6%. The normalised viability (BT-549 [2]; 10 nM) was 94.8%, the normalised viability (BT-549 [2]; 1000 nM) was 11.6% and the normalised viability (BT-549 [2]; 10000 nM) was 9.46%. The normalised viability (SK-BR-3 [3]; 10 nM) was 98.4%, the normalised viability (SK-BR-3 [3]; 1000 nM) was 5.34% and the normalised viability (SK-BR-3 [3]; 10000 nM) was 4.75%. For the same compound, the normalised viability (BT-474 [4]; 10 nM) was 119%, the normalised viability (BT-474 [4]; 1000 nM) was 26.5% and the normalised viability (BT-474 [4]; 10000 nM) was 35%. It also gave a normalised viability (CAL-120 [5]; 10 nM) of 84.1%, a normalised viability (CAL-120 [5]; 1000 nM) of 12.9% and a normalised viability (CAL-120 [5]; 10000 nM) of 11.8%. It also gave a normalised viability (MDA-MB-468 [6]; 10 nM) of 114%, a normalised viability (MDA-MB-468 [6]; 1000 nM) of 11.3% and a normalised viability (MDA-MB-468 [6]; 10000 nM) of 5.84%. It also gave a normalised viability (MDA-MB-436 [7]; 10 nM) of 105%, a normalised viability (MDA-MB-436 [7]; 1000 nM) of 16.2% and a normalised viability (MDA-MB-436 [7]; 10000 nM) of 15.1%. It also gave a normalised viability (HDQ-P1 [8]; 3 nM) of 113%, a normalised viability (HDQ-P1 [8]; 30 nM) of 93.5% and a normalised viability (HDQ-P1 [8]; 100 nM) of 63%. For the same compound, the drug sensitivity score (HCC1937 [9]) was 17.2, the drug sensitivity score (HCC1599 [10]) was 18.5 and the drug sensitivity score (MFM-223 [11]) was 17.1. The normalised viability (HCC1937 [12]) was 53.2%, the normalised viability (MDA-MB-453) was 99.8% and the normalised viability (HCC1143 [13]) was 76.5%. For the same compound, the normalised viability (BT-549 [14]) was 91.7%, the normalised viability (Hs578T) was 52.8% and the normalised viability (SK-BR-3 [15]) was 62.1%. For the same compound, the normalised viability (BT-474 [16]) was 85.5%, the normalised viability (CAL-120 [17]) was 69% and the normalised viability (MDA-MB-231) was 69.5%. It also gave a normalised viability (CAL-85-1) of 96.2%, a normalised viability (MDA-MB-468 [18]) of 96.9% and a normalised viability (HCC1599 [19]) of 78.6%. For the same compound, the normalised viability (DU-4475) was 101%, the normalised viability (MFM-223 [20]) was 82.7% and the normalised viability (MDA-MB-436 [21]) was 104%. For the same compound, the normalised viability (CAL-51) was 117%, the normalised viability (CAL-148) was 89.1% and the normalised viability (HDQ-P1 [22]) was 132%.
Work on `Cn1cnc2c(F)c(Nc3ccc(Br)cc3Cl)c(C(=O)NOCCO)cc21` [Selumetinib] yielded a normalised viability (HCC1143 [1]; 10 nM) of 79.7%, a normalised viability (HCC1143 [1]; 1000 nM) of 58.2% and a normalised viability (HCC1143 [1]; 10000 nM) of 49.7%. The normalised viability (BT-549 [2]; 10 nM) was 109%, the normalised viability (BT-549 [2]; 1000 nM) was 101% and the normalised viability (BT-549 [2]; 10000 nM) was 95.3%. The normalised viability (SK-BR-3 [3]; 10 nM) was 98.7%, the normalised viability (SK-BR-3 [3]; 1000 nM) was 114% and the normalised viability (SK-BR-3 [3]; 10000 nM) was 93.6%. It also gave a normalised viability (BT-474 [4]; 10 nM) of 104%, a normalised viability (BT-474 [4]; 1000 nM) of 105% and a normalised viability (BT-474 [4]; 10000 nM) of 104%. For the same compound, the normalised viability (CAL-120 [5]; 10 nM) was 78.8%, the normalised viability (CAL-120 [5]; 1000 nM) was 78.6% and the normalised viability (CAL-120 [5]; 10000 nM) was 63.3%. It also gave a normalised viability (MDA-MB-468 [6]; 10 nM) of 106%, a normalised viability (MDA-MB-468 [6]; 1000 nM) of 95% and a normalised viability (MDA-MB-468 [6]; 10000 nM) of 69.5%. The normalised viability (MDA-MB-436 [7]; 10 nM) was 113%, the normalised viability (MDA-MB-436 [7]; 1000 nM) was 59.8% and the normalised viability (MDA-MB-436 [7]; 10000 nM) was 101%. It also gave a normalised viability (HDQ-P1 [8]; 3 nM) of 92.4%, a normalised viability (HDQ-P1 [8]; 30 nM) of 107% and a normalised viability (HDQ-P1 [8]; 100 nM) of 92.6%. For the same compound, the drug sensitivity score (HCC1937 [9]) was 0, the drug sensitivity score (HCC1599 [10]) was 0.803 and the drug sensitivity score (MFM-223 [11]) was 0. It also gave a normalised viability (HCC1937 [12]) of 97.9%, a normalised viability (MDA-MB-453) of 108% and a normalised viability (HCC1143 [13]) of 63.9%. The normalised viability (BT-549 [14]) was 110%, the normalised viability (Hs578T) was 68.4% and the normalised viability (SK-BR-3 [15]) was 65.7%. It also gave a normalised viability (BT-474 [16]) of 94.5%, a normalised viability (CAL-120 [17]) of 82.8% and a normalised viability (MDA-MB-231) of 61.5%. The normalised viability (CAL-85-1) was 98.6%, the normalised viability (MDA-MB-468 [18]) was 92.5% and the normalised viability (HCC1599 [19]) was 96.6%. The normalised viability (DU-4475) was 93.8%, the normalised viability (MFM-223 [20]) was 87.6% and the normalised viability (MDA-MB-436 [21]) was 123%. It also gave a normalised viability (CAL-51) of 113%, a normalised viability (CAL-148) of 91.6% and a normalised viability (HDQ-P1 [22]) of 116%.
For `Nc1nc2[nH]cnc2c(=S)[nH]1` [Thioguanine], the normalised viability (HCC1143 [1]; 10 nM) was 92.6%, the normalised viability (HCC1143 [1]; 1000 nM) was 103% and the normalised viability (HCC1143 [1]; 10000 nM) was 82.9%. It also gave a normalised viability (BT-549 [2]; 10 nM) of 94%, a normalised viability (BT-549 [2]; 1000 nM) of 106% and a normalised viability (BT-549 [2]; 10000 nM) of 49%. For the same compound, the normalised viability (SK-BR-3 [3]; 10 nM) was 99.7%, the normalised viability (SK-BR-3 [3]; 1000 nM) was 103% and the normalised viability (SK-BR-3 [3]; 10000 nM) was 49.6%. For the same compound, the normalised viability (BT-474 [4]; 10 nM) was 112%, the normalised viability (BT-474 [4]; 1000 nM) was 113% and the normalised viability (BT-474 [4]; 10000 nM) was 102%. The normalised viability (CAL-120 [5]; 10 nM) was 94.1%, the normalised viability (CAL-120 [5]; 1000 nM) was 67.2% and the normalised viability (CAL-120 [5]; 10000 nM) was 34.9%. The normalised viability (MDA-MB-468 [6]; 10 nM) was 104%, the normalised viability (MDA-MB-468 [6]; 1000 nM) was 62.1% and the normalised viability (MDA-MB-468 [6]; 10000 nM) was 44.4%. It also gave a normalised viability (MDA-MB-436 [7]; 10 nM) of 104%, a normalised viability (MDA-MB-436 [7]; 1000 nM) of 74.5% and a normalised viability (MDA-MB-436 [7]; 10000 nM) of 65.6%. The normalised viability (HDQ-P1 [8]; 3 nM) was 117%, the normalised viability (HDQ-P1 [8]; 30 nM) was 127% and the normalised viability (HDQ-P1 [8]; 100 nM) was 101%. It also gave a drug sensitivity score (HCC1937 [9]) of 8.45, a drug sensitivity score (HCC1599 [10]) of 5.01 and a drug sensitivity score (MFM-223 [11]) of 0. The normalised viability (HCC1937 [12]) was 98.5%, the normalised viability (MDA-MB-453) was 109% and the normalised viability (HCC1143 [13]) was 82.7%. The normalised viability (BT-549 [14]) was 94.6%, the normalised viability (Hs578T) was 89.9% and the normalised viability (SK-BR-3 [15]) was 87.5%. For the same compound, the normalised viability (BT-474 [16]) was 109%, the normalised viability (CAL-120 [17]) was 96.8% and the normalised viability (MDA-MB-231) was 89.3%. It also gave a normalised viability (CAL-85-1) of 102%, a normalised viability (MDA-MB-468 [18]) of 107% and a normalised viability (HCC1599 [19]) of 103%. For the same compound, the normalised viability (DU-4475) was 105%, the normalised viability (MFM-223 [20]) was 95.2% and the normalised viability (MDA-MB-436 [21]) was 103%. The normalised viability (CAL-51) was 108%, the normalised viability (CAL-148) was 109% and the normalised viability (HDQ-P1 [22]) was 103%.
